Assays:
[1] = tested on: ulcerative colitis patients in an active stage; assay: Clinical study, 960 mg orally 3 times a day for 8 weeks: subscore for mucosal finding (large intestine endoscopic examination), mucosal remission rate; type: in vivo, human; parameters: Cases by subscore for mucosal finding, figure in parentheses: unit not given here
Protocol: (§1) The compound of Example 1 or the compound of Comparative Example 1 was orally administered after meals 3 times a day. The number of the given tablets was 8 per administration (i.e., the amount of the compound (1) of Example 1 administered was 960 mg per administration). The administration period was 8 weeks. The compounds were administered until the timing after the breakfast on the day before the assessment day at Week 8.
(3) Mucosal Finding (Large Intestine Endoscopic Examination) [Investigation Timings: Weeks 0 and 8 (or Discontinuation Time)]
The investigators or sub-investigators conducted the endoscopic examination on the large intestine, and checked the state of the large intestinal mucosa.
The endoscopic examination was conducted during a time from 7 days before Week 8 (or discontinuation time) until a medical interview at Week 8 (or discontinuation time). Note that the endoscopic examination on the large intestine at Week 8 (or discontinuation time) was conducted by the same physician at Week 0 when the situation allowed.
The assessment at the site served as the “subscore for mucosal finding” of the Mayo score. At Week 8 (or discontinuation time) also, the same site as that at Week 0 was assessed as the “subscore for mucosal finding” of the Mayo score.
A mucosal remission rate is a proportion of subjects each having a Mayo score with a subscore for mucosal finding of 1 point or less.

[2] = tested on: ulcerative colitis patients in an active stage; assay: Clinical study, 960 mg orally 3 times a day for 8 weeks: subscore for bloody stool of Mayo score, bloody-stool disappearance rate; type: in vivo, human; parameters: Cases by subscore for bloody stool, figure in parentheses: unit not given here
Protocol: as §1
(2) Bloody Stool [Investigation Timings: Weeks 0, 2, 4, and 8 (or Discontinuation Time)]
Based on the contents described in the symptom-recording diaries, the investigators or sub-investigators investigated the states of bloody stool in 3 days immediately before each assessment day. Note that when the endoscopic examination on the large intestine was conducted, the investigation days were set to be the closest three days excluding the day of the endoscopic examination on the large intestine, the following day, and if a pre-treatment was performed for the endoscopic examination on the large intestine, the pre-treatment day.
The bloody stool state on the most severe day among the investigated three days was scored according to the following criteria.

## COC(=O)[C@H](Cc1ccc(-n2c(=O)c3cc(N(C)C)ccc3n(C)c2=O)cc1)NC(=O)c1c(Cl)cccc1Cl [Example 1, methyl(2S)-2-(2,6-dichlorobenzamide)-3-{4-[6-(dimethylamino)-1-methyl-2,4-dioxo-1,4-dihydroquinazolin-3(2H)-yl]phenyl}propanoate]
[1]; Week 0, score 2
  Cases by subscore for mucosal finding, figure in parentheses: 88.2
  Number of cases by subscore for mucosal finding: 45
[1]; Week 0, score 3
  Cases by subscore for mucosal finding, figure in parentheses: 11.8
  Number of cases by subscore for mucosal finding: 6
[1]; Week 8
  Difference in mucosal remission rates, Example 1 vs Comparative Example 1 (placebo): 29.4%
[1]; Week 8, 51 cases analyzed
  Mucosal remission cases: 30
[1]; Week 8, all subjects
  Mucosal remission rate: 58.8%
[1]; Week 8, score 0
  Cases by subscore for mucosal finding, figure in parentheses: 17.0
  Number of cases by subscore for mucosal finding: 8
[1]; Week 8, score 1
  Cases by subscore for mucosal finding, figure in parentheses: 46.8
  Number of cases by subscore for mucosal finding: 22
[1]; Week 8, score 2
  Cases by subscore for mucosal finding, figure in parentheses: 34.0
  Number of cases by subscore for mucosal finding: 16
[1]; Week 8, score 3
  Cases by subscore for mucosal finding, figure in parentheses: 2.1
  Number of cases by subscore for mucosal finding: 1
[1]; Week 8 score 0, Week 0 score 2
  Number of cases, cross tabulation of subscore for mucosal finding: 7
[1]; Week 8 score 0, Week 0 score 3
  Number of cases, cross tabulation of subscore for mucosal finding: 1
[1]; Week 8 score 1, Week 0 score 2
  Number of cases, cross tabulation of subscore for mucosal finding: 22
[1]; Week 8 score 1, Week 0 score 3
  Number of cases, cross tabulation of subscore for mucosal finding: 0
[1]; Week 8 score 2, Week 0 score 2
  Number of cases, cross tabulation of subscore for mucosal finding: 13
[1]; Week 8 score 2, Week 0 score 3
  Number of cases, cross tabulation of subscore for mucosal finding: 3
[1]; Week 8 score 3, Week 0 score 2
  Number of cases, cross tabulation of subscore for mucosal finding: 0
[1]; Week 8 score 3, Week 0 score 3
  Number of cases, cross tabulation of subscore for mucosal finding: 1
[1]; body weight 50 kg or more and disease period less than 5 years (16/22 cases)
  Mucosal remission rate: 72.7%
[2]; Week 0, score 1
  Cases by subscore for bloody stool, figure in parentheses: 45.1
  Number of cases by subscore for bloody stool: 23
[2]; Week 0, score 2
  Cases by subscore for bloody stool, figure in parentheses: 47.1
  Number of cases by subscore for bloody stool: 24
[2]; Week 0, score 3
  Cases by subscore for bloody stool, figure in parentheses: 7.8
  Number of cases by subscore for bloody stool: 4
[2]; Week 2, score 0
  Cases by subscore for bloody stool, figure in parentheses: 9.8
  Number of cases by subscore for bloody stool: 5
[2]; Week 2, score 1
  Cases by subscore for bloody stool, figure in parentheses: 54.9
  Number of cases by subscore for bloody stool: 28
[2]; Week 2, score 2
  Cases by subscore for bloody stool, figure in parentheses: 33.3
  Number of cases by subscore for bloody stool: 17
[2]; Week 2, score 3
  Cases by subscore for bloody stool, figure in parentheses: 2.0
  Number of cases by subscore for bloody stool: 1
[2]; Week 2 score 0, Week 0 score 1
  Number of cases, cross tabulation of subscore for bloody stool: 2
[2]; Week 2 score 0, Week 0 score 2
  Number of cases, cross tabulation of subscore for bloody stool: 2
[2]; Week 2 score 0, Week 0 score 3
  Number of cases, cross tabulation of subscore for bloody stool: 1
[2]; Week 2 score 1, Week 0 score 1
  Number of cases, cross tabulation of subscore for bloody stool: 18
[2]; Week 2 score 1, Week 0 score 2
  Number of cases, cross tabulation of subscore for bloody stool: 8
[2]; Week 2 score 1, Week 0 score 3
  Number of cases, cross tabulation of subscore for bloody stool: 2
[2]; Week 2 score 2, Week 0 score 1
  Number of cases, cross tabulation of subscore for bloody stool: 3
[2]; Week 2 score 2, Week 0 score 2
  Number of cases, cross tabulation of subscore for bloody stool: 14
[2]; Week 2 score 2, Week 0 score 3
  Number of cases, cross tabulation of subscore for bloody stool: 0
[2]; Week 2 score 3, Week 0 score 1
  Number of cases, cross tabulation of subscore for bloody stool: 0
[2]; Week 2 score 3, Week 0 score 2
  Number of cases, cross tabulation of subscore for bloody stool: 0
[2]; Week 2 score 3, Week 0 score 3
  Number of cases, cross tabulation of subscore for bloody stool: 1
[2]; Week 4, score 0
  Cases by subscore for bloody stool, figure in parentheses: 35.3
  Number of cases by subscore for bloody stool: 18
[2]; Week 4, score 1
  Cases by subscore for bloody stool, figure in parentheses: 43.1
  Number of cases by subscore for bloody stool: 22
[2]; Week 4, score 2
  Cases by subscore for bloody stool, figure in parentheses: 19.6
  Number of cases by subscore for bloody stool: 10
[2]; Week 4, score 3
  Cases by subscore for bloody stool, figure in parentheses: 2.0
  Number of cases by subscore for bloody stool: 1
[2]; Week 4 score 0, Week 0 score 1
  Number of cases, cross tabulation of subscore for bloody stool: 9
[2]; Week 4 score 0, Week 0 score 2
  Number of cases, cross tabulation of subscore for bloody stool: 8
[2]; Week 4 score 0, Week 0 score 3
  Number of cases, cross tabulation of subscore for bloody stool: 1
[2]; Week 4 score 1, Week 0 score 1
  Number of cases, cross tabulation of subscore for bloody stool: 12
[2]; Week 4 score 1, Week 0 score 2
  Number of cases, cross tabulation of subscore for bloody stool: 9
[2]; Week 4 score 1, Week 0 score 3
  Number of cases, cross tabulation of subscore for bloody stool: 1
[2]; Week 4 score 2, Week 0 score 1
  Number of cases, cross tabulation of subscore for bloody stool: 2
[2]; Week 4 score 2, Week 0 score 2
  Number of cases, cross tabulation of subscore for bloody stool: 7
[2]; Week 4 score 2, Week 0 score 3
  Number of cases, cross tabulation of subscore for bloody stool: 1
[2]; Week 4 score 3, Week 0 score 1
  Number of cases, cross tabulation of subscore for bloody stool: 0
[2]; Week 4 score 3, Week 0 score 2
  Number of cases, cross tabulation of subscore for bloody stool: 0
[2]; Week 4 score 3, Week 0 score 3
  Number of cases, cross tabulation of subscore for bloody stool: 1
[2]; Week 8
  Difference in bloody-stool disappearance rates, Example 1 vs Comparative Example 1 (placebo): 29.4%
[2]; Week 8, 51 cases analyzed
  Bloody-stool disappearing cases: 25
[2]; Week 8, all subjects
  Bloody-stool disappearance rate: 49.0%
[2]; Week 8, score 0
  Cases by subscore for bloody stool, figure in parentheses: 49.0
  Number of cases by subscore for bloody stool: 25
[2]; Week 8, score 1
  Cases by subscore for bloody stool, figure in parentheses: 37.3
  Number of cases by subscore for bloody stool: 19
[2]; Week 8, score 2
  Cases by subscore for bloody stool, figure in parentheses: 11.8
  Number of cases by subscore for bloody stool: 6
[2]; Week 8, score 3
  Cases by subscore for bloody stool, figure in parentheses: 2.0
  Number of cases by subscore for bloody stool: 1
[2]; Week 8 score 0, Week 0 score 1
  Number of cases, cross tabulation of subscore for bloody stool: 13
[2]; Week 8 score 0, Week 0 score 2
  Number of cases, cross tabulation of subscore for bloody stool: 9
[2]; Week 8 score 0, Week 0 score 3
  Number of cases, cross tabulation of subscore for bloody stool: 3
[2]; Week 8 score 1, Week 0 score 1
  Number of cases, cross tabulation of subscore for bloody stool: 8
[2]; Week 8 score 1, Week 0 score 2
  Number of cases, cross tabulation of subscore for bloody stool: 11
[2]; Week 8 score 1, Week 0 score 3
  Number of cases, cross tabulation of subscore for bloody stool: 0
[2]; Week 8 score 2, Week 0 score 1
  Number of cases, cross tabulation of subscore for bloody stool: 2
[2]; Week 8 score 2, Week 0 score 2
  Number of cases, cross tabulation of subscore for bloody stool: 4
[2]; Week 8 score 2, Week 0 score 3
  Number of cases, cross tabulation of subscore for bloody stool: 0
[2]; Week 8 score 3, Week 0 score 1
  Number of cases, cross tabulation of subscore for bloody stool: 0
[2]; Week 8 score 3, Week 0 score 2
  Number of cases, cross tabulation of subscore for bloody stool: 0
[2]; Week 8 score 3, Week 0 score 3
  Number of cases, cross tabulation of subscore for bloody stool: 1

From US10183022B2, “Pharmaceutical composition for treating ulcerative colitis” (EA Pharma Co., Ltd., priority 2014, dated 2019)
